Laboratory results from PubChem BioAssay (NCI).
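Method: 48-hour compound exposure of cells in 96-well plates, five concentrations, linear interpolation of endpoints. TGI is the concentration that stops growth completely.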

Assays:
Assay in all cases: NCI tumour cell line growth inhibition, 48 h
786-0 renal = system: 786-0 renal
A549 NSCLC = system: A549 NSCLC
ACHN renal = system: ACHN renal
BT-549 breast = system: BT-549 breast
CAKI-1 renal = system: CAKI-1 renal
CCRF-CEM leukemia = system: CCRF-CEM leukemia
COLO 205 colon = system: COLO 205 colon
DU-145 prostate = system: DU-145 prostate
EKVX NSCLC = system: EKVX NSCLC
HCC-2998 colon = system: HCC-2998 colon
HCT-116 colon = system: HCT-116 colon
HCT-15 colon = system: HCT-15 colon
HL-60(TB) leukemia = system: HL-60(TB) leukemia
HOP-62 NSCLC = system: HOP-62 NSCLC
HS 578T breast = system: HS 578T breast
HT29 colon = system: HT29 colon
IGROV1 ovarian = system: IGROV1 ovarian
K-562 leukemia = system: K-562 leukemia
KM12 colon = system: KM12 colon
M14 melanoma = system: M14 melanoma
MCF7 breast = system: MCF7 breast
MDA-MB-231 breast = system: MDA-MB-231 breast
MDA-MB-435 = system: MDA-MB-435
MDA-N = system: MDA-N
MOLT-4 leukemia = system: MOLT-4 leukemia
NCI-H23 lung = system: NCI-H23 lung
NCI-H460 lung = system: NCI-H460 lung
NCI-H522 lung = system: NCI-H522 lung
NCI/ADR-RES ovarian = system: NCI/ADR-RES ovarian
OVCAR-3 ovarian = system: OVCAR-3 ovarian
OVCAR-4 ovarian = system: OVCAR-4 ovarian
OVCAR-8 ovarian = system: OVCAR-8 ovarian
PC-3 prostate = system: PC-3 prostate
RPMI-8226 leukemia = system: RPMI-8226 leukemia
RXF 393 renal = system: RXF 393 renal
SF-268 CNS = system: SF-268 CNS
SF-295 CNS = system: SF-295 CNS
SF-539 CNS = system: SF-539 CNS
SK-MEL-28 melanoma = system: SK-MEL-28 melanoma
SK-MEL-5 melanoma = system: SK-MEL-5 melanoma
SK-OV-3 ovarian = system: SK-OV-3 ovarian
SN12C renal = system: SN12C renal
SNB-19 CNS = system: SNB-19 CNS
SNB-75 CNS = system: SNB-75 CNS
SR leukemia = system: SR leukemia
SW-620 colon = system: SW-620 colon
T-47D breast = system: T-47D breast
TK-10 renal = system: TK-10 renal
U251 CNS = system: U251 CNS
UACC-257 melanoma = system: UACC-257 melanoma
UACC-62 melanoma = system: UACC-62 melanoma
UO-31 renal = system: UO-31 renal
A498 renal = system: A498 renal
MALME-3M melanoma = system: MALME-3M melanoma
NCI-H226 lung = system: NCI-H226 lung
OVCAR-5 ovarian = system: OVCAR-5 ovarian
SK-MEL-2 melanoma = system: SK-MEL-2 melanoma
LOX IMVI melanoma = system: LOX IMVI melanoma

Measured: TGI

CCCCC1(NN=C2CCCCC2)C(=O)N(c2ccccc2)N(c2ccccc2)C1=O
64.9 µM: K-562 leukemia
> 100 µM: 786-0 renal | A549 NSCLC | ACHN renal | BT-549 breast | CAKI-1 renal | COLO 205 colon | DU-145 prostate | EKVX NSCLC | HCC-2998 colon | HCT-116 colon | HCT-15 colon | HOP-62 NSCLC | HS 578T breast | HT29 colon | IGROV1 ovarian | KM12 colon | M14 melanoma | MCF7 breast | MDA-MB-231 breast | MDA-MB-435 | MDA-N | NCI-H23 lung | NCI-H460 lung | NCI-H522 lung | NCI/ADR-RES ovarian | OVCAR-3 ovarian | OVCAR-4 ovarian | OVCAR-8 ovarian | PC-3 prostate | RPMI-8226 leukemia | RXF 393 renal | SF-268 CNS | SF-295 CNS | SF-539 CNS | SK-MEL-28 melanoma | SK-MEL-5 melanoma | SK-OV-3 ovarian | SN12C renal | SNB-19 CNS | SNB-75 CNS | SW-620 colon | T-47D breast | TK-10 renal | U251 CNS | UACC-257 melanoma | UACC-62 melanoma | UO-31 renal
38.4 µM: HL-60(TB) leukemia
32.2 µM: SR leukemia
40.7 µM: CCRF-CEM leukemia
66 µM: MOLT-4 leukemia

CN(C)CCOc1ccc([N+](=O)[O-])c2cccnc12
> 100 µM: 786-0 renal | A498 renal | A549 NSCLC | ACHN renal | BT-549 breast | CAKI-1 renal | CCRF-CEM leukemia | COLO 205 colon | DU-145 prostate | HCC-2998 colon | HCT-116 colon | HCT-15 colon | HL-60(TB) leukemia | HOP-62 NSCLC | HS 578T breast | HT29 colon | IGROV1 ovarian | K-562 leukemia | KM12 colon | M14 melanoma | MALME-3M melanoma | MCF7 breast | MDA-MB-231 breast | MDA-MB-435 | MDA-N | MOLT-4 leukemia | NCI-H226 lung | NCI-H23 lung | NCI-H460 lung | NCI-H522 lung | NCI/ADR-RES ovarian | OVCAR-3 ovarian | OVCAR-5 ovarian | OVCAR-8 ovarian | PC-3 prostate | SF-268 CNS | SF-295 CNS | SF-539 CNS | SK-MEL-2 melanoma | SK-MEL-28 melanoma | SK-MEL-5 melanoma | SK-OV-3 ovarian | SN12C renal | SNB-19 CNS | SNB-75 CNS | SR leukemia | SW-620 colon | T-47D breast | TK-10 renal | U251 CNS | UACC-257 melanoma | UACC-62 melanoma | UO-31 renal

N#Cc1ccc(-c2nc3c(N)ncnc3o2)cc1
> 100 µM: 786-0 renal | A498 renal | A549 NSCLC | ACHN renal | BT-549 breast | CAKI-1 renal | CCRF-CEM leukemia | COLO 205 colon | DU-145 prostate | EKVX NSCLC | HCC-2998 colon | HCT-116 colon | HCT-15 colon | HL-60(TB) leukemia | HOP-62 NSCLC | HS 578T breast | HT29 colon | IGROV1 ovarian | K-562 leukemia | KM12 colon | LOX IMVI melanoma | M14 melanoma | MCF7 breast | MDA-MB-231 breast | MDA-MB-435 | MDA-N | MOLT-4 leukemia | NCI-H226 lung | NCI-H23 lung | NCI-H460 lung | NCI-H522 lung | NCI/ADR-RES ovarian | OVCAR-3 ovarian | OVCAR-5 ovarian | OVCAR-8 ovarian | PC-3 prostate | RPMI-8226 leukemia | RXF 393 renal | SF-268 CNS | SF-295 CNS | SF-539 CNS | SK-MEL-2 melanoma | SK-MEL-28 melanoma | SK-MEL-5 melanoma | SN12C renal | SNB-19 CNS | SR leukemia | SW-620 colon | T-47D breast | TK-10 renal | UACC-257 melanoma | UACC-62 melanoma | UO-31 renal

O=NNc1ccc2ccccc2n1
> 100 µM: 786-0 renal | A498 renal | A549 NSCLC | ACHN renal | BT-549 breast | CAKI-1 renal | CCRF-CEM leukemia | DU-145 prostate | EKVX NSCLC | HCT-116 colon | HCT-15 colon | HL-60(TB) leukemia | HOP-62 NSCLC | HS 578T breast | HT29 colon | IGROV1 ovarian | K-562 leukemia | KM12 colon | LOX IMVI melanoma | M14 melanoma | MCF7 breast | MDA-MB-231 breast | MDA-MB-435 | MDA-N | MOLT-4 leukemia | NCI-H226 lung | NCI-H23 lung | NCI-H460 lung | NCI-H522 lung | NCI/ADR-RES ovarian | OVCAR-3 ovarian | OVCAR-4 ovarian | OVCAR-5 ovarian | OVCAR-8 ovarian | PC-3 prostate | RPMI-8226 leukemia | SF-268 CNS | SF-295 CNS | SF-539 CNS | SK-MEL-2 melanoma | SK-MEL-28 melanoma | SK-MEL-5 melanoma | SK-OV-3 ovarian | SN12C renal | SNB-19 CNS | SNB-75 CNS | SR leukemia | SW-620 colon | T-47D breast | TK-10 renal | U251 CNS | UACC-257 melanoma | UACC-62 melanoma | UO-31 renal
